Test results published in PMC11123773, “Identification of New Substrates and Inhibitors of Human CYP2A7” (Molecules, 2024).
Where a chain is given by its changes, count along the chain named. Where two headings read alike, the source gives them in different places. Values belong to the compound of their own block, whether it stands above or below them.

What was measured:
CYP2A6*1 [1] = target: T1, CYP2A6*1 (Homo sapiens, UniProt P11509); conditions: by CYP2A6*1; nicotine 250 µM
T1 sequence (P11509 1-494): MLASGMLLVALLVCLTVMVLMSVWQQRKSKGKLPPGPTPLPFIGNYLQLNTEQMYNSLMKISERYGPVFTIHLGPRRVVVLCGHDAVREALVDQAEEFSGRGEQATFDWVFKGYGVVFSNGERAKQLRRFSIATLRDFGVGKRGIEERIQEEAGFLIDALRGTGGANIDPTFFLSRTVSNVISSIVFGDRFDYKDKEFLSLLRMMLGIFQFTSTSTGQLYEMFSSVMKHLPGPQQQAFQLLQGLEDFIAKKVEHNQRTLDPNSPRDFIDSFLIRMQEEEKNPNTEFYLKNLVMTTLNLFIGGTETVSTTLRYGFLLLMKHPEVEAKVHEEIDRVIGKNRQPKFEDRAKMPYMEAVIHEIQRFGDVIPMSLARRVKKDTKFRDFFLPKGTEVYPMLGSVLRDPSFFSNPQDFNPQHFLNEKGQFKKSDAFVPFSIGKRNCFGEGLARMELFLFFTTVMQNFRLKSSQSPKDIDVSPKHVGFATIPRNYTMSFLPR
Procedure: (§1) This was performed as described previously with slight modifications. Briefly, fission yeast cells were cultured on EMM plates with 5 µM thiamine for 3 days at 30 °C. A single yeast colony was then transferred to a 10 mL liquid culture of EMM without thiamine and cultured at 30 °C and 230 rpm for 36 h. As the recombinant expression of the human enzymes is controlled by the strong endogenous nmt1 promoter, all subsequent cultures were cultured in the absence of thiamine to keep the promoter in an active state. For each activity assay, 5 × 10^7 cells (stationary growth phase) were transferred to 1.5 mL Eppendorf tubes (Axygen; Silicon Valley, USA), pelleted, and incubated in 1 mL of 0.3% Triton-X100 in Tris-KCl buffer (200 mM KCl, 100 mM Tris-HCl pH 7.8) at room temperature for 60 min at 150 rpm for permeabilization. After three washes with 1 mL NH4HCO3 buffer (50 mM, pH 7.8), cells were resuspended in phosphate buffer (pH 7.4) and then the substrate and the NADPH regeneration system were added to a total volume of 50 µL. The samples were incubated at 37 °C and 1000 rpm for 3 h. For LC-MS analysis, the reaction mixture was extracted with an equal amount of ethyl acetate by centrifugation, and the supernatants were stored at −20 °C until use.
(§2) An Agilent HPLC/microTOF-Q II instrument equipped with a LiChrospher 100 RP-18 column was used to carry out all analytical procedures. The mobile phase that we used was a mixture of water with 0.05% formic acid as phase A and 100% acetonitrile as B, run at a constant flow of 0.3 mL/min for 45 min. The gradient used was 0–20 min (80% A: 20% B to 80% B), 20–30 min (100% B), 30–35 min again (100% B), and 35–45 min (80% A: 20% B). We used positive electrospray ionization mode at a capillary voltage of 4.5 kV for mass spectrometry.

CYP2A7*1 [2] = target: T2, CYP2A7*1 (Homo sapiens, UniProt P20853); conditions: by CYP2A7*1; nicotine 250 µM
T2 sequence (P20853 1-494): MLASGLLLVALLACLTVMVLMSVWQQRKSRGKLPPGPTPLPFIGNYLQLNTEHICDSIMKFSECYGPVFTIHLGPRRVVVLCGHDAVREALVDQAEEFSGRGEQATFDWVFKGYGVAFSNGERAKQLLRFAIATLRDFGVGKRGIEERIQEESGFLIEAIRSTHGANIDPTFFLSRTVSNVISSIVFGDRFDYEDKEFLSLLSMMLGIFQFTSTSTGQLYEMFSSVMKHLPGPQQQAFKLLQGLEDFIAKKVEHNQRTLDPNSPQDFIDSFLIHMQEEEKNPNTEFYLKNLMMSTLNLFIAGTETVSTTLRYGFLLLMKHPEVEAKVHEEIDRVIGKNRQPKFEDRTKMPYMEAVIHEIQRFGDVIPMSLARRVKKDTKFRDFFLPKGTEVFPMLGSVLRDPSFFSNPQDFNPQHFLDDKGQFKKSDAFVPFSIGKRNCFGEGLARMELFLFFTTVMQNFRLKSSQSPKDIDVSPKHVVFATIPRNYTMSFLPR
Procedure: as §1, §2

CYP2A7-WT [3] = target: T3, CYP2A7-WT (Homo sapiens, UniProt P20853, D169E/H274R/R311C/V479G); conditions: by CYP2A7-WT; nicotine 250 µM
T3 sequence (P20853 1-494 D169E/H274R/R311C/V479G): T2 sequence (P20853 1-494) with D169E, H274R, R311C, V479G
Procedure: as §1, §2

CYP2A7-WT [4] = target: T3, CYP2A7-WT; assay: Fluorescence detection of coumarin 7-hydroxylation and deethylation of 7-ethoxycoumarin; type: biochemical; design: expressed in transfected cells; host or cells: Schizosaccharomyces pombe strain AA01 (pREP1-CYP2A7-WT in CAD62), permeabilized cells (enzyme bags); conditions: by CYP2A7-WT; fluorometric
Procedure: (§3) The fluorescence activity of CYP enzymes was measured as described with slight modifications. The solution was shaken at 37 °C for 3 h in the dark at a 50 µL final reaction volume. Afterwards, reactions were stopped by adding 350 µL ethyl acetate. The reaction tubes were vortexed for 5 min before centrifugation at 16,000× g for 8 min. Finally, 200 µL of the upper phase was extracted three times with 350 µL of ethyl acetate each. In the last step, the reaction tubes were air-dried in the dark. For reconstituting the pellet we added 50 µL of methanol, which was later followed by the addition of 250 µL of 0.01 M NaOH. The amounts of de-ethylated products were quantified by using standard solutions of 7-hydroxycoumarin and 7-ethoxycoumarin. The concentrations of 7-hydroxycoumarin were determined fluorometrically with 50 µL volume using Grenier microlon flat-bottom 96-well black plates. The energies for excitation and emission were set at 368 and at 530 nm, respectively. All readings were taken in triplicate.

CYP2A6*1 [5] = target: T1, CYP2A6*1; assay: as above; type: biochemical; design: expressed in transfected cells; host or cells: Schizosaccharomyces pombe strain RAJ122 (pREP1-CYP2A6*1 in CAD62), permeabilized cells (enzyme bags); conditions: by CYP2A6*1; fluorometric
Procedure: as §3

CYP2A7*1 [6] = target: T2, CYP2A7*1; assay: as above; type: biochemical; design: expressed in transfected cells; host or cells: Schizosaccharomyces pombe strain RAJ127 (pREP1-CYP2A7*1 in CAD62), permeabilized cells (enzyme bags); conditions: by CYP2A7*1; fluorometric
Procedure: as §3

CYP2A7-WT [7] = target: T3, CYP2A7-WT; assay: Conversion of luminogenic (proluciferin) substrates by permeabilized fission yeast cells (enzyme bags); type: biochemical; design: expressed in transfected cells; host or cells: Schizosaccharomyces pombe strain AA01 (pREP1-CYP2A7-WT in CAD62), permeabilized cells (enzyme bags); conditions: for Luminescence (RLU): enzyme CYP2A7-WT coexpressed with CPR, compound as substrate, 3 h, 37 °C, mean ± SD
Procedure: (§4) Briefly, a concentrated CYP reaction mixture (containing a fourfold concentrated substrate and potassium phosphate buffer) was added to the cell pellets after the permeabilization and washing process. For inhibition assays, the CYP reaction mixtures with the inhibitors at a final concentration of 10 µM were pre-incubated at 37 °C for 10 min. CYP reactions were commenced by adding the twofold concentrated NADPH regeneration system. Samples were incubated for 3 h at 37 °C and 1000 rpm. After centrifugation at 16,000× g for 1 min, the supernatants were transferred to the white microtiter plates and an equal amount of reconstituted luciferin detection reagent was added to each well. Plates were then incubated at room temperature for 20 min and the luminescence was recorded on a Magellan infinite 200Pro microplate reader (Tecan; Männedorf, Switzerland). For the proluciferin substrates’ screening, the specific reaction conditions and substrate concentrations were as given in the instructions of the manufacturer (Promega). […] For inhibitor assays, ketoconazole, 1-benzylimidazole, and letrozole were added to a final concentration of 10 µM. All measurements were done at least three times in triplicates.

CYP2A7*1 [8] = target: T2, CYP2A7*1; assay: as above; type: biochemical; design: expressed in transfected cells; host or cells: Schizosaccharomyces pombe strain RAJ127 (pREP1-CYP2A7*1 in CAD62), permeabilized cells (enzyme bags); conditions: for Conversion of luminogenic substrate (in words): by CYP2A7*1, vs. negative control (CPR only); for Luminescence (RLU): enzyme CYP2A7*1 coexpressed with CPR, compound as substrate, 3 h, 37 °C, mean ± SD
Procedure: as §4

CYP2A6*1 [9] = target: T1, CYP2A6*1; assay: in vitro
CYP2A7*1 [10] = target: T2, CYP2A7*1; assay: in vitro
CYP2A7-WT [11] = target: T3, CYP2A7-WT; assay: in vitro
CYP2A6*1 [12] = target: T1, CYP2A6*1; conditions: by CYP2A6*1, vs. negative control (CPR only)
Procedure: as §1, with “For LC-MS analysis, the reaction mixture was extracted with an equal amount of ethyl acetate by centrifugation, and the supernatants were stored at −20 °C until use.” left out
This was performed as described previously with slight modifications. […] Plates were then incubated at room temperature for 20 min and the luminescence was recorded on a Magellan infinite 200Pro microplate reader (Tecan; Männedorf, Switzerland). […]

[13] = pH 7.4, probe Luciferin-H (100 µM)

SMILES: CN1CCC[C@H]1c1cccnc1 [nicotine]
Metabolization of nicotine to the nicotine iminium ion (CYP2A6*1 [1]): confirmed the metabolization | Metabolization of nicotine to the nicotine iminium ion (CYP2A7*1 [2]): no nicotine metabolite was found | Metabolization of nicotine to the nicotine iminium ion (CYP2A7-WT [3]): no nicotine metabolite was found

SMILES: CCOc1ccc2ccc(=O)oc2c1 [7-ethoxycoumarin]
Conversion to 7-hydroxycoumarin (CYP2A7-WT [4]): no reaction was observed | Conversion to 7-hydroxycoumarin (CYP2A6*1 [5]): confirmed the activity | Conversion to 7-hydroxycoumarin (CYP2A7*1 [6]): no reaction was observed

SMILES: O=C(O)[C@H]1CSC(c2nc3ccc(OCc4ccccc4)cc3s2)=N1 [Luciferin-BE]
Luminescence (RLU) (CYP2A7-WT [7]): 6312 ± 699 RLU | Conversion of luminogenic substrate (in words) (CYP2A7*1 [8]): are CYP2A7*1 substrates | Luminescence (RLU) (CYP2A7*1 [8]): 16,216 ± 369 RLU

SMILES: c1ccc(Cn2ccnc2)cc1 [1-Benzyl-imidazole]
inhibition at 3 h, 10 µM (CYP2A6*1 [9]): 64 ± 12% | inhibition at 3 h, 10 µM (CYP2A7*1 [10]; pH 7.4): 55 ± 11% | inhibition at 3 h, 10 µM (CYP2A7-WT [11]; pH 7.4): 80 ± 21%

SMILES: COc1ccc2nc(C3=NC(C(=O)O)CS3)sc2c1 (centres unmarked) [Luciferin-ME]
Conversion of luminogenic substrate (in words) (CYP2A6*1 [12]): can both metabolize | Conversion of luminogenic substrate (in words) (CYP2A7-WT [7]; by CYP2A7-WT, vs. negative control (CPR only)): also acted on both substrates | Luminescence (RLU) (CYP2A7-WT [7]): 439 ± 113 RLU | Conversion of luminogenic substrate (in words) (CYP2A7*1 [8]): can both metabolize | Luminescence (RLU) (CYP2A7*1 [8]): 276 ± 63 RLU

Now from value to compound:

Conversion to 7-hydroxycoumarin (CYP2A7-WT [4]): no reaction was observed | Conversion to 7-hydroxycoumarin (CYP2A6*1 [5]): confirmed the activity | Conversion to 7-hydroxycoumarin (CYP2A7*1 [6]): no reaction was observed
SMILES: O=c1ccc2ccccc2o1 [Coumarin, coumarin]

inhibition at 3 h, 10 µM (CYP2A6*1 [9]; probe Luciferin-H (100 µM)): 70 ± 11% | inhibition at 3 h, 10 µM (CYP2A7*1 [10]; [13]): 74 ± 4% | inhibition at 3 h, 10 µM (CYP2A7-WT [11]; [13]): 58 ± 17%
SMILES: CC(=O)N1CCN(c2ccc(OCC3COC(Cn4ccnc4)(c4ccc(Cl)cc4Cl)O3)cc2)CC1 (centres unmarked) [Ketoconazole]

inhibition at 3 h, 10 µM (CYP2A6*1 [9]; probe Luciferin-H (100 µM)): 64 ± 10% | inhibition at 3 h, 10 µM (CYP2A7*1 [10]; [13]): 78 ± 7% | inhibition at 3 h, 10 µM (CYP2A7-WT [11]; [13]): 72 ± 13%
SMILES: N#Cc1ccc(C(c2ccc(C#N)cc2)n2cncn2)cc1 [Letrozole]
